Data reported in PubChem BioAssay AID256 (DTP/NCI, 2004).
Values joined by “and” are separate entries in the source; they are usually repeats but may differ in a detail not shown here. Equal entries are not always repeated. Toxic doses and inconclusive results are not listed. The calls were made as follows: active = survival T/C of 150% or more; inactive = T/C below 125% in these data.

Tested on: CD2F1 mice, L1210 leukemia ip, survival T/C
Experiment: NCI In Vivo Anticancer Drug Screen. Data for tumor model L1210 Leukemia (intraperitoneal) in CD2F1 (CDF1) mice
Conditions: higher = longer survival
How it was run: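 Transplantable tumor in mice; compound-treated vs vehicle-treated groups. Read-out = treated/control ratio of the measured endpoint.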

[1] = endpoint: mean survival time, dose: 100.0 mg/kg/injection, schedule: Q04DX003 (ip), vehicle: saline with Tween-80
[2] = endpoint: mean survival time, dose: 200.0 mg/kg/injection, schedule: Q04DX003 (ip), vehicle: saline with Tween-80
[3] = endpoint: mean survival time, dose: 400.0 mg/kg/injection, schedule: Q04DX003 (ip), vehicle: saline with Tween-80
[4] = endpoint: mean survival time, dose: 25.0 mg/kg/injection, schedule: Q04DX003 (ip), vehicle: saline with Tween-80
[5] = endpoint: mean survival time, dose: 50.0 mg/kg/injection, schedule: Q04DX003 (ip), vehicle: saline with Tween-80

Measured: T/C

CC(C)CC(N)C(=O)O (stereo not given) (tested in a mixture with another compound)
inactive: endpoint: median survival time, dose: 3.13 mg/kg/injection, schedule: Q04DX002 (ip), vehicle: saline 111 % of control and 108 % of control | endpoint: median survival time, dose: 6.25 mg/kg/injection, schedule: Q04DX002 (ip), vehicle: saline 105 % of control and 100 % of control and 111 % of control | endpoint: median survival time, dose: 12.5 mg/kg/injection, schedule: Q04DX002 (ip), vehicle: saline 100 % of control and 105 % of control | endpoint: median survival time, dose: 25.0 mg/kg/injection, schedule: Q04DX002 (ip), vehicle: saline 100 % of control and 105 % of control | endpoint: median survival time, dose: 50.0 mg/kg/injection, schedule: Q04DX002 (ip), vehicle: saline 111 % of control and 100 % of control and 108 % of control | endpoint: median survival time, dose: 100.0 mg/kg/injection, schedule: Q04DX002 (ip), vehicle: saline 105 % of control | endpoint: median survival time, dose: 200.0 mg/kg/injection, schedule: Q04DX002 (ip), vehicle: saline 108 % of control | endpoint: median survival time, dose: 400.0 mg/kg/injection, schedule: Q04DX002 (ip), vehicle: saline 96 % of control

N#CCCCC1(CCCC#N)OCCO1
inactive: endpoint: mean survival time, dose: 50.0 mg/kg/injection, schedule: Q04DX003 (ip), vehicle: saline 100 % of control | endpoint: mean survival time, dose: 100.0 mg/kg/injection, schedule: Q04DX003 (ip), vehicle: saline 102 % of control | endpoint: mean survival time, dose: 200.0 mg/kg/injection, schedule: Q04DX003 (ip), vehicle: saline 107 % of control

CCCCCCCCNC(C)=O
inactive: endpoint: mean survival time, dose: 6.25 mg/kg/injection, schedule: Q01DX009 (ip), vehicle: saline with Tween-80 93 % of control | endpoint: mean survival time, dose: 12.5 mg/kg/injection, schedule: Q01DX009 (ip), vehicle: saline with Tween-80 90 % of control | endpoint: mean survival time, dose: 25.0 mg/kg/injection, schedule: Q01DX009 (ip), vehicle: saline with Tween-80 94 % of control

C=C(C)C12CC(C)C34OC5(CCCCCCCC(C)C6C(C)C(OC(=O)c7ccccc7)C(O)(C(O)C7(COC(=O)CCCCCCCCCCCCCCC)OC7C3C1O5)C64)O2 (stereo not given)
inactive: endpoint: mean survival time, dose: 1.5 micrograms/kg/injection, schedule: Q01DX009 (ip), vehicle: saline 103 % of control | endpoint: mean survival time, dose: 3.1 micrograms/kg/injection, schedule: Q01DX009 (ip), vehicle: saline 104 % of control | endpoint: mean survival time, dose: 6.2 micrograms/kg/injection, schedule: Q01DX009 (ip), vehicle: saline 97 % of control | endpoint: mean survival time, dose: 12.5 micrograms/kg/injection, schedule: Q01DX009 (ip), vehicle: saline 104 % of control | endpoint: mean survival time, dose: 25.0 micrograms/kg/injection, schedule: Q01DX009 (ip), vehicle: saline 95 % of control | endpoint: mean survival time, dose: 50.0 micrograms/kg/injection, schedule: Q01DX009 (ip), vehicle: saline 101 % of control

CCOC(=O)C(CCCCC(NC(C)=O)(C(=O)OCC)C(=O)OCC)(NC(C)=O)C(=O)OCC
inactive: [1] 98 % of control | [2] 92 % of control | [3] 92 % of control

COC(=O)Nc1nc2ccc(SC)cc2c(=O)[nH]1
inactive: endpoint: median survival time, dose: 25.0 mg/kg/injection, schedule: Q01DX009 (ip), vehicle: Klucel (hydroxypropylcellulose) (HPC) 98 % of control | endpoint: median survival time, dose: 50.0 mg/kg/injection, schedule: Q01DX009 (ip), vehicle: Klucel (hydroxypropylcellulose) (HPC) 98 % of control | endpoint: median survival time, dose: 100.0 mg/kg/injection, schedule: Q01DX009 (ip), vehicle: Klucel (hydroxypropylcellulose) (HPC) 98 % of control | endpoint: median survival time, dose: 200.0 mg/kg/injection, schedule: Q01DX009 (ip), vehicle: Klucel (hydroxypropylcellulose) (HPC) 112 % of control

CCOC(=O)c1ccc(NC(=O)Nc2ccc(N(C)C(C)=O)cc2)cc1
inactive: [4] 98 % of control | endpoint: mean survival time, dose: 50.0 mg/kg/injection, schedule: Q01DX009 (ip), vehicle: saline with Tween-80 87 % of control | [5] 96 % of control | endpoint: mean survival time, dose: 100.0 mg/kg/injection, schedule: Q01DX001 (ip), vehicle: saline with Tween-80 100 % of control | endpoint: mean survival time, dose: 100.0 mg/kg/injection, schedule: Q01DX009 (ip), vehicle: saline with Tween-80 87 % of control and 101 % of control | endpoint: mean survival time, dose: 100.0 mg/kg/injection, schedule: Q04DX002 (ip), vehicle: saline with Tween-80 90 % of control and 97 % of control | [1] 94 % of control and 109 % of control | endpoint: mean survival time, dose: 200.0 mg/kg/injection, schedule: Q01DX001 (ip), vehicle: saline with Tween-80 97 % of control | endpoint: mean survival time, dose: 200.0 mg/kg/injection, schedule: Q01DX009 (ip), vehicle: saline with Tween-80 90 % of control and 91 % of control | endpoint: mean survival time, dose: 200.0 mg/kg/injection, schedule: Q04DX002 (ip), vehicle: saline with Tween-80 87 % of control and 91 % of control | [2] 104 % of control | endpoint: mean survival time, dose: 400.0 mg/kg/injection, schedule: Q01DX001 (ip), vehicle: saline with Tween-80 102 % of control | endpoint: mean survival time, dose: 400.0 mg/kg/injection, schedule: Q04DX002 (ip), vehicle: saline with Tween-80 88 % of control and 94 % of control

CCOC(=O)C1(C(=O)OCC)C(C)CC(O)N1C(=O)c1cc2c(cc1[N+](=O)[O-])OCO2 (stereo not given)
inactive: endpoint: mean survival time, dose: 100.0 mg/kg/injection, schedule: Q01DX001 (ip), vehicle: Klucel (hydroxypropylcellulose) (HPC) 100 % of control | endpoint: mean survival time, dose: 200.0 mg/kg/injection, schedule: Q01DX001 (ip), vehicle: Klucel (hydroxypropylcellulose) (HPC) 100 % of control | endpoint: mean survival time, dose: 400.0 mg/kg/injection, schedule: Q01DX001 (ip), vehicle: Klucel (hydroxypropylcellulose) (HPC) 104 % of control

CC12OCCN1CC(COc1ccccc1)O2 (stereo not given)
inactive: [1] 104 % of control | [2] 98 % of control | [3] 110 % of control

S=c1[nH]nc2n1NC(c1ccoc1)=NN2
inactive: [4] 96 % of control | [5] 100 % of control | [1] 90 % of control and 93 % of control | [2] 107 % of control
